Source: US10882821B1, “Enantiomeric compound for the reduction of the deleterious activity of extended nucleotide repeat containing genes” (THE BOARD OF TRUSTEES OF THE LELAND STANFORD JUNIOR …, priority 2017, dated 2021)

Experiments:
[1] = test system: mutant HTT in lymphoblastoid cells GM14044; experiment: HD lymphoblastoid cell assay to assess mutant HTT reduction; assay type: cell-based, human; conditions: 72 hours
Description: 3. HD Lymphoblastoid Cell Assay to Assess Mutant HTT Reduction
Lymphoblastoid cells GM14044, which are derived from Juvenile HD patient with around 250 CAG repeats in the mutant HTT allele, are used for lymphoblastoid cell assays. Lymphoblastoid cells are cultured as suspension cells. Right before the compound treatments, 5×10^5 cells/well are seeded into 24 well plate in 1.5 ml RPMI culture medium plus 10% fetal bovine serum. Compounds in serial dilutions are added into the well for the indicated final concentration. Cells are maintained in 37° C., 5% CO2 incubator for 72 hours
b. Compound Effect in Reducing mHTT (IC50)
The rest of the cell/medium mixture is removed from culture plate into a 1.5 ml microcentrifuge tube, then centrifuged at 2500 rpm for 2 minutes to remove the culture medium. Cell pallets are washed with 1×PBS, then stored at −80° C. until ready for Western blot analysis. Western blot analysis is performed as described above. The intensity of HTT from untreated cells is set as 100% and the IC50 of the compound is defined as the compound concentration at which the HTT protein was reduced to 50%.

[2] = brain to plasma ratio after oral dose; assay type: in vivo; conditions: at 1 hour following a 5 mg/kg oral dose in rats
mutant HTT protein = experiment: mutant HTT activity assay in induced pluripotent stem cells (Western blot); assay type: cell-based, human; conditions: HD patient iPSC; for effect on mutant HTT protein level in iPSC derived from a Huntington Disease patient: one day treatment, Western blot
Description: 3. Mutant HTT Activity Assay in Induced Pluripotent Stem Cells (iPSC)
Huntington disease patient iPSCs (ND36999 from Coriell Institute) were detached into single cells by Accutase (AT104 from Accutase) and plated on a 24-well plate coated with Matrigel (354277 from Corning). When the cells' confluency reaches about 70%, compounds are added to the cell culture medium StemMACS (130104368 from MiltenyiBiotec) and incubated with the cells for one day. Then the medium is removed and the cells are washed with PBS. After all liquid is removed, the plate is put in −80° C. for overnight. After taking out the plate from freezer, lysis buffer (30 mM Tris-HCl, pH 8.0, 5 mM NaCl, 0.1% Triton X-100) with complete proteinase inhibitor cocktail (5892791001 from Sigma-Aldrich) is immediately added to the cells. Cell samples are lysed on ice for 10 minutes. The supernatants from spinning (14 k rpm for 10 min) are collected. The protein concentrations are determined by BCA assay (Pierce, ThermoFisher). Equal amounts of protein are loaded onto 4-12% gel. After electrophoresis, the gels are transferred to nitrocellulose membranes by wet transfer at 35V for 16 hr. The protein level of mutant HTT, total HTT and tubulin are determined by immunoblotting with anti-poly Glutamine (MAB1574 from Millipore), anti-Huntingtin protein (MAB2166 from Millipore) and anti-alpha tubulin (AJ1034a from ABGENT). Blots are imaged on a Li-Cor Odyssey infrared imager. The bands intensities are determined by Li-Cor Odyssey software.
Using the protocol reported above, iPSCs were treated with HD143 at various doses for 24 hr. The cells were collected and lysed for protein quantification. Equal amounts of protein were applied on SDS-PAGE gel for Western Blotting. Mutant HTT protein was recognized by polyQ antibody (MAB1574 from Millipore) while wild type HTT protein was blotted by anti-Huntingtin antibody (MAB2166 from Millipore). Both proteins were scanned and quantified by Li-Cor Odyssey and normalized by tubulin.

[3] = target: T1, interaction between Supt4h and NGN (subunit of Supt5h) (Homo sapiens, UniProt P63272); experiment: split Gaussia luciferase complementation assay (M2-8 cells); assay type: cell-based; conditions: for IC50: M2-8 cells, 24 hr treatment
T1 construct: expressed in transfected cells
Description: 1. Slit Gaussia Luciferase Complementation Assay […]
i pNBR-X1-Supt4-Gluc1 and pNEBR-X1-NGN-Guc2
The HA-Supt4hand Flag-NGN fragments are amplified by PR using the plasmid pHA-Supt4h-YC and pFlag-NGN-YN and sub-cloned individually into pcDNA3.1-Gluc1 and pcDNA3.1-GIuc2 (described in “A highly sensitive protein-protein interaction assay based on Gausssia Luciferase” published at Nat Methods. 2006 December; 3(12):977-9.Epub 2006 Nov. 12). Then HA-Supt4h-Gluc1 and Flag-NGN-Gluc2 are amplified by PCR and inserted to pNEBR-X1-Hygro (New England BioLabs), which contain RheoSwitch responsive element under the control of RheoSwitch ligand. […]
ii: pNEBR-X1-Supt4h-G1-NGN-G2
PCR products containing the sequence from 5XRE to polyA in pNEBR-X1-NGN-G2 are inserted to pNEBR-X1-Supt4h-G1 at Pcil site to generate Supt4h-G1 and NGN-G2 bidirectional under their own RheoSwitch responsive element and polyA in the same plasmid. […]
b. Stable Cloned Cell Line i: 293-R1 is a cloned cell which is engineered to constitutively express RSL1 receptor/activator by transfecting HEK 293 cells with pNEBR-R1 plasmid (New England BioLabs) and selected with Blasticidin. […]
ii: M2-8 is a cloned 293-R cell which can inducibly express pNEBR-X1-Supt4h-G1-NGN-G2 by addition of RSL1. Two point mutations (M431 and M1101) are introduced to the GL1 and GL2 for better stability according to “A high-throughput cell-based Gaussia luciferase reporter assay for identifying modulators of fibulin-3 secretion” published on J Biomol Screen. 2013 July; 18(6):647-58. The cell line is selected by Hygromycin. […]
c. Cell Culture and Transfection Condition
All the HEK-293 cells and derivative cell clones are maintained in DMEM containing 10% FBS plus corresponding antibiotics (250 μg/ml hygromycin B, 10 μg/ml blasticidin or both) at 37° C., 5% CO2. d. Bioluminescence Assay in Cell Lysates
For stable cell M2-8, the cells are plated into 96 well white plate directly. 24 hours later, RheoSwitch ligand together with/without test compound is added to the cells for induction/drug treatment. After 24 hr, the cells are washed with PBS and the plate was put in −20° C. freezer for overnight. After taking out the plate from freezer, lysis buffer (30 mM Tris-HCl, pH 8.0, 5 mM NaCl, 0.1% Triton X-100) with 10 μg/ml native coelenterazine (Nanolight Technology) is immediately added to the cells. The cells are lysed at room temperature for one hour in dark. After shaking for about 1 min, the signal intensities (integrated 100 ms) from the plate were read on Tecan Infinite M200 or M1000.
The split gaussia luciferase complementation assay measures the interaction between Sup4h and NGN. NGN is the subunit of Supt5h that binds to Supt4h. […] Therefore, administration of HD143 results in decreased production of mutant proteins encoded by genes that include mutant nucleotide repeats.

[4] = test system: Gmr-Htt97Q Drosophila HD model (mutant Htt); experiment: eye morphology (rough eye) analysis in Drosophila HD model; assay type: in vivo, Drosophila melanogaster; conditions: Gmr-Htt97Q/+ flies, 10 or 100 μM in media
Description: The Drosophila melanogaster (fruit fly) HD models used in this set of experiments carry the coding sequence of human Httexon1 with 97 CAG repeats to mimic mutant Httof Huntington's disease (HD). The Gmr::Htt97Q fly, expressing mutant Htt primarily in the neurons of Drosophila compound eyes, has a severe degeneration of photoreceptor neurons and the phenotypic trait ‘rough eye’. All of the fly stocks and genetics crosses were maintained at 25° C. on standard cornmeal yeast agar media.
2. Eye Morphology (Rough Eye) Analysis
15 adult male flies (Gmr-Htt97Q/Gmr-Htt97Q or Gmr/Gmr) were crossed with 15 virgin female flies W1118(+/+) in a vial containing standard yeast agar media with testing compound (+)-HD143 in a concentration of 10 μM or 100 μM. Parent-flies were first removed from vials at day 7, followed by a collection of newly hatched flies for ‘rough eye’ analysis. The morphology of compound eyes was captured using a Leica DMR upright microscope equipped with a digital camera (CooISNAP 5.0, Photometrics). […]
FIG. 4A. The morphology of compound eye was analyzed in fruit flies treated with or without (+)-HD143. […] To quantify the appearance of “rough eye” in Gmr-Htt97Q/+ treated with 10 and 100 μM of (+)-HD143, ten flies were randomly picked from each group and the number of flies with “rough eye” phenotype were determined under microscope. […]

| SMILES | IC50 [1] | [Brain]/[Plasma] [2] | Dose to reduce mutant HTT in HD iPSC (mutant HTT protein; 24 hr) | effect on mutant HTT protein level in iPSC derived from a Huntington Disease patient (mutant HTT protein) | IC50 [3] | effect on Supt4h/NGN interaction ([3]; split Gaussia luciferase complementation assay) | effect on neuron degeneration phenotypes (rough eye) of mutant Htt in Drosophila HD models [4] | effect on neuron degeneration phenotypes (rough eye) of mutant Htt in Drosophila HD models ([4]; listed as (+)-HD143) | fold more potent than racemic HD143 ([3]; ratio of IC50 values, split Gaussia luciferase assay) |
| --- | --- | --- | --- | --- | --- | --- | --- | --- | --- |
| Brc1ccc2[nH]c3c(c2c1)CCCC3NCc1ccccc1 (racemic) [racemic HD143, N-benzyl-6-bromo-2,3,4,9-tetrahydro-1H-carbazol-1-amine] | 90 nM | 9 at 1 hour following a 5 mg/kg oral dose in rats | >=60 nm | decreases mutant HTT protein | 30 nM | interrupts the interaction between Sup4h and NGN | – | – | – |
| Brc1ccc2[nH]c3c(c2c1)CCC[C@H]3NCc1ccccc1 [(R)-(+)-HD143, (R)-(+)-N-benzyl-6-bromo-2,3,4,9-tetrahydro-1H-carbazol-1-amine] | – | – | – | significantly reduced mutant HTT protein level | 15 nM | – | alleviates neuron degeneration phenotypes | Alleviates Neuron Degeneration Phenotypes | 2 fold |
| Brc1ccc2[nH]c3c(c2c1)CCC[C@@H]3NCc1ccccc1.Cl [(S)-(−)-HD143, (S)-(−)-N-Benzyl-6-bromo-2,3,4,9-tetrahydro-1H-carbazol-1-amine Hydrochloride] | – | – | – | showed no activity | 900 nM | – | – | – | – |
